# Reference: PMC10996807 (Research Square, 2024)
# Legend:
# B. anthracis = assay: microbe, parasite or virus in culture; assay type: cell-based; conditions: for MIC50 / MIC90: Bacillus anthracis
# [1] = tested on: B. anthracis Ames NR3838 spores; design: species or system New Zealand White rabbits; conditions: rabbit, in vivo
# B. anthracis Sterne = assay type: cell-based, Bacillus anthracis
Compound,MIC Range (B. anthracis) [µg/mL],MIC50 (B. anthracis) [µg/mL],MIC90 (B. anthracis) [µg/mL],histopathology lesions ([1]; 12.5 mg/kg),efficacious dose in rabbits ([1]; iv) [mg/kg],effect of washing on preformed supramolecular structures (B. anthracis Sterne),formation of supramolecular structures (B. anthracis Sterne)
O=C(O)c1cn(C2CC2)c2cc(N3CCNCC3)c(F)cc2c1=O [Ciprofloxacin],0.06 to 4,0.12,0.5,–,–,–,–
C[C@H]1c2cccc(O)c2C(=O)C2=C(O)[C@]3(O)C(=O)C(C(N)=O)=C(O)[C@@H](N(C)C)[C@@H]3[C@@H](O)[C@@H]21 [Doxycycline],≤0.008 to 0.12,0.03,0.06,–,–,–,–
C[C@@H](O)[C@H]1C(=O)N2C(C(=O)O)=C(SCCN=CN)C[C@H]12 [Imipenem],0.03 to 1,0.06,0.12,–,–,–,–
C[C@H]1COc2c(N3CCN(C)CC3)c(F)cc3c(=O)c(C(=O)O)cn1c23 [Levofloxacin],0.06 to 1,0.12,0.5,mitigated lesions,12.5,–,–
Lys(Bodipy FL)10-teixobactin,–,–,–,–,–,no apparent effect,apparent
